Measurements from patent publication US11839613B2, “Pyrimidine derivatives as PGE2 receptor modulators” (IDORSIA PHARMACEUTICALS LTD, priority 2017, dated 2023).

Tests used:
PTGER2 (EP2) = PTGER2 (EP2) (Homo sapiens (Human), UniProt P43116); experiment: hEP2 b-arrestin assay (PathHunter HEK 293 PTGER2 b-arrestin cells); assay type: cell-based; conditions: antagonistic activity, beta-arrestin assay; read-out: hEP2 b-arr IC50
Description: Plate is pre-incubated 15 minutes at 37° C. Then five microliters of PGE2 (final conc. 5 μM) are transferred into the assay plate. Plate is incubated 120 minutes at 37° C.
(each concentration is measured in duplicate)

PTGER4 (EP4) = PTGER4 (EP4) (Homo sapiens (Human), UniProt P35408); experiment: cell-based
Sequence of PTGER4 (EP4) (P35408 whole entry): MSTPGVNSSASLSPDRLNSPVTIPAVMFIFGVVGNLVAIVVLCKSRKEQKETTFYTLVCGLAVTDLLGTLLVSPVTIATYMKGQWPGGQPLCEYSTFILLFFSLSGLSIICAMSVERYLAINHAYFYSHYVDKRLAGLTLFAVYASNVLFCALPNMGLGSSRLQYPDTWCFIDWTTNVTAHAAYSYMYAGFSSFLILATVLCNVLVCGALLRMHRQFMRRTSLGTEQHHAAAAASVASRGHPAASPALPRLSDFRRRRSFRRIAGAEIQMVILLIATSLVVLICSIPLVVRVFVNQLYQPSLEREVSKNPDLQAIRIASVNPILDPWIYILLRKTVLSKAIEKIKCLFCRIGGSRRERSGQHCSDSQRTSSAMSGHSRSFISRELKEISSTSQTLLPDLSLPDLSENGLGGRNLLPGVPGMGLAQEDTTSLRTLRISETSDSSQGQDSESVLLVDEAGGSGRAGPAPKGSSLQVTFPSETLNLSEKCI

Sequence of PTGER2 (EP2) (P43116 whole entry): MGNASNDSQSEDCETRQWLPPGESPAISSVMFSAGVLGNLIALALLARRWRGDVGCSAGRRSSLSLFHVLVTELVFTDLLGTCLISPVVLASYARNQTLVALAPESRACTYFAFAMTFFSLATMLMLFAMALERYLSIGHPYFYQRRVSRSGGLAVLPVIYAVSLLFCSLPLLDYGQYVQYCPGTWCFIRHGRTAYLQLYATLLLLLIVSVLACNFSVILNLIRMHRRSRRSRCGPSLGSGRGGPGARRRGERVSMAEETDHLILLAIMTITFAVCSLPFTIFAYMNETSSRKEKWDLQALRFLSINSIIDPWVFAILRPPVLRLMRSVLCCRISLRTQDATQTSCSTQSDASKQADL

Row | Compound | IC50 (PTGER2 (EP2)) | IC50 (PTGER4 (EP4))
1 | COc1cc(-c2cc(NCCc3c(OC)cc4c(c3C)OCCO4)ncn2)ccc1CC(=O)O [Example 434, (2-Methoxy-4-{6-[2-(7-methoxy-5-methyl-2,3-dihydro-benzo[1,4]dioxin-6-yl)-ethylamino]-pyrimidin-4-yl}-phenyl)-acetic acid] | 26 nM | 58 nM
2 | CSc1cc(-c2cc(NCCc3cc(F)c4sccc4c3)ncn2)ccc1C(=O)O [Example 364, 4-{6-[2-(7-Fluoro-benzo[b]thiophen-5-yl)-ethylamino]-pyrimidin-4-yl}-2-methylsulfanyl-benzoic acid] | 151 nM | 52 nM
3 | CCCc1cc(-c2cc(NCCc3cc(F)c4scc(Cl)c4c3)ncn2)ccc1CC(=O)O [Example 501, (4-{6-[2-(3-Chloro-7-fluoro-benzo[b]thiophen-5-yl)-ethylamino]-pyrimidin-4-yl}-2-propyl-phenyl)-acetic acid] | 196 nM | 808 nM
4 | CC(C)Oc1cc(-c2cc(NCCc3ccc4sccc4c3F)ncn2)ccc1CC(=O)O [Example 424, (4-{6-[2-(4-Fluoro-benzo[b]thiophen-5-yl)-ethylamino]-pyrimidin-4-yl}-2-isopropoxy-phenyl)-acetic acid] | 424 nM | 80 nM
5 | CCc1cc(-c2cc(NCCc3c(OC)cc4c(c3C)OCCO4)ncn2)ccc1CC(=O)O [Example 444, (2-Ethyl-4-{6-[2-(7-methoxy-5-methyl-2,3-dihydro-benzo[1,4]dioxin-6-yl)-ethylamino]-pyrimidin-4-yl}-phenyl)-acetic acid] | 15 nM | 43 nM
6 | CCn1cc(-c2cc(NCCc3cc(F)c4sccc4c3)ncn2)cc1C(=O)O [Example 547, 1-Ethyl-4-{6-[2-(7-fluoro-benzo[b]thiophen-5-yl)-ethylamino]-pyrimidin-4-yl}-1H-pyrrole-2-carboxylic acid] | 825 nM | 322 nM
7 | CCOc1cc(-c2cc(NCCc3ccc4ccsc4c3C)ncn2)sc1C(=O)O [Example 376, 3-Ethoxy-5-{6-[2-(7-methyl-benzo[b]thiophen-6-yl)-ethylamino]-pyrimidin-4-yl}-thiophene-2-carboxylic acid] | 50 nM | 13 nM
8 | Cc1c(CCNc2cc(-c3ccc(C(=O)O)c(OC4CC4)c3)ncn2)ccc2ccccc12 [Example 521, 2-Cyclopropoxy-4-{6-[2-(1-methyl-naphthalen-2-yl)-ethylamino]-pyrimidin-4-yl}-benzoic acid] | 31 nM | 78 nM
9 | CCOc1cc(-c2cc(NCCc3c(OC)cc4c(c3C)OCCO4)ncn2)ccc1CC(=O)O [Example 399, (2-Ethoxy-4-{6-[2-(7-methoxy-5-methyl-2,3-dihydro-benzo[1,4]dioxin-6-yl)-ethylamino]-pyrimidin-4-yl}-phenyl)-acetic acid] | 10 nM | 30 nM
10 | O=C(O)c1ccc(-c2cc(NCCc3cc(F)c4sccc4c3)ncn2)cc1 [Example 496, 4-{6-[2-(7-Fluoro-benzo[b]thiophen-5-yl)-ethylamino]-pyrimidin-4-yl}-benzoic acid] | 588 nM | 908 nM
11 | CCCc1cc(-c2cc(NCCc3ccc4c(c3)OCCO4)ncn2)ccc1CC(=O)O [Example 527, (4-{6-[2-(2,3-Dihydro-benzo[1,4]dioxin-6-yl)-ethylamino]-pyrimidin-4-yl}-2-propyl-phenyl)-acetic acid] | 892 nM | 337 nM
12 | O=C(O)C1Cc2cc(-c3cc(NCCc4ccc5sccc5c4)ncn3)ccc2O1 (racemic) [Example 474, rac-5-[6-(2-Benzo[b]thiophen-5-yl-ethylamino)-pyrimidin-4-yl]-2,3-dihydro-benzofuran-2-carboxylic acid] | 272 nM | 914 nM
13 | CCOc1cc(-c2cc(NCCc3ccc4ccsc4c3C)ncn2)ccc1C(=O)O [Example 470, 2-Ethoxy-4-{6-[2-(7-methyl-benzo[b]thiophen-6-yl)-ethylamino]-pyrimidin-4-yl}-benzoic acid] | 343 nM | 420 nM
14 | COc1cc2c(c(C)c1CCNc1cc(-c3ccc(CC(=O)O)c(OC(F)(F)F)c3)ncn1)OCCO2 [Example 428, (4-{6-[2-(7-Methoxy-5-methyl-2,3-dihydro-benzo[1,4]dioxin-6-yl)-ethylamino]-pyrimidin-4-yl}-2-trifluoromethoxy-phenyl)-acetic acid] | 7 nM | 41 nM
15 | COc1cc2ccccc2c(C)c1CCNc1cc(-c2ccc(C(=O)O)c(OC3CC3)c2)ncn1 [Example 448, 2-Cyclopropoxy-4-{6-[2-(3-methoxy-1-methyl-naphthalen-2-yl)-ethylamino]-pyrimidin-4-yl}-benzoic acid] | 15 nM | 46 nM
16 | CCOc1cc(-c2cc(NCCc3ccc4ccccc4c3C)ncn2)ccc1-c1noc(=S)[nH]1 [Example 565, 3-(2-Ethoxy-4-{6-[2-(1-methyl-naphthalen-2-yl)-ethylamino]-pyrimidin-4-yl}-phenyl)-[1,2,4]oxadiazole-5(4H)-thione] | 58 nM | 23 nM
17 | O=c1nc(-c2ccc(-c3cc(NCCc4cc(F)c5sccc5c4)ncn3)cc2)o[nH]1 [Example 543, 5-(4-(6-((2-(7-fluorobenzo[b]thiophen-5-yl)ethyl)amino)pyrimidin-4-yl)phenyl)-[1,2,4]oxadiazol-3(2H)-one] | 612 nM | 124 nM
18 | CCOc1cc(-c2cc(NCCc3c(OC)cc4ccccc4c3C)ncn2)cc(F)c1CC(=O)O [Example 374, (2-Ethoxy-6-fluoro-4-{6-[2-(3-methoxy-1-methyl-naphthalen-2-yl)-ethylamino]-pyrimidin-4-yl}-phenyl)-acetic acid] | 334 nM | 52 nM
19 | O=C(O)c1ccc(-c2cc(NCCc3cc(F)c4sccc4c3)ncn2)cc1OC1CC1 [Example 449, 2-Cyclopropoxy-4-{6-[2-(7-fluoro-benzo[b]thiophen-5-yl)-ethylamino]-pyrimidin-4-yl}-benzoic acid] | 83 nM | 46 nM
20 | CCOc1cc(-c2cc(NCCc3cc(F)c4sccc4c3)ncn2)ccc1C(=O)C(=O)O [Example 537, (2-Ethoxy-4-{6-[2-(7-fluoro-benzo[b]thiophen-5-yl)-ethylamino]-pyrimidin-4-yl}-phenyl)-oxo-acetic acid] | 670 nM | 76 nM
21 | CCOc1cc(-c2cc(NCCc3ccc4sccc4c3F)ncn2)ccc1OCCC(=O)O [Example 421, 3-(2-Ethoxy-4-{6-[2-(4-fluoro-benzo[b]thiophen-5-yl)-ethylamino]-pyrimidin-4-yl}-phenoxy)-propionic acid] | 84 nM | 22 nM
22 | CCOc1cc(-c2cc(NCCc3ccc4sccc4c3F)ncn2)ccc1CC(=O)O [Example 368, (2-Ethoxy-4-{6-[2-(4-fluoro-benzo[b]thiophen-5-yl)-ethylamino]-pyrimidin-4-yl}-phenyl)-acetic acid] | 221 nM | 66 nM
23 | COc1cc2c(cc1CCNc1cc(-c3ccc(CC(=O)O)c(OC(C)C)c3)ncn1)OCCO2 [Example 523, (2-Isopropoxy-4-{6-[2-(7-methoxy-2,3-dihydro-benzo[1,4]dioxin-6-yl)-ethylamino]-pyrimidin-4-yl}-phenyl)-acetic acid] | 227 nM | 195 nM
